Results published in US12577245B2, “Sulfonyl benzamide derivatives as Bcl-2 inhibitors” (ASCENTAGE PHARMA (SUZHOU) CO., LTD., priority 2021, dated 2026).

Experiments:
RS4; 11Bcl-2-D103E cells = test: CellTiter-Glo (CTG) cell viability assay in RS4;11-BCL2-D103E cells; assay type: cell-based; conditions: 10% FBS, 3 days
Protocol: (§1) RS4; 11Bcl-2-G101V, RS4; 11Bcl-2-D103E, RS4; 11Bcl-2-V156D and RS4; 11Bcl-2-G101V-D103E cells were obtained from Cobioer Biosciences. Cells were maintained in the RPMI-1640 medium with 10% FBS, 1% P/S and puromycin (1 μg/mL) at 37° C. and an atmosphere of 5% CO2.
(§2) • The effect of representative Compounds of the Disclosure on cell viability was determined using CellTiter-Glo® (CTG) luminescent cell viability assay (Promega, USA) according to the manufacturer's instructions. 95 μL of cell suspension (10000 cells/well) in culture medium were seeded into 96-well plates and cultured 4 hours. Each tested compound was serially diluted in blank culture medium, and 5 μL of the compound dilution was added to the corresponding well of the cell plate. After the addition of the tested compound, the cells were incubated at 37° C. in an atmosphere of 5% CO2 for 3 days. At the end of 3 days, 30 μL of CTG solution was added to each well of the plate and mix contents for 2 minutes on an orbital shaker. Allow the plate to incubate at room temperature for 15 mins to stabilize signal and record RLU on the Biotek plate reader. The readings were normalized to the vehicle cells, and the IC50 was calculated using GraphPad Prism 8 software.

RS4; 11Bcl-2-G101V cells = test: CellTiter-Glo (CTG) cell viability assay in RS4;11-Bcl-2-G101V cells; assay type: cell-based; conditions: 10% FBS, 3 days
How it was run: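 Luminescent ATP read-out (CellTiter-Glo) after 3-day compound treatment at 37 °C gave viability relative to vehicle, from which IC50 was fitted. Mutant Bcl-2 RS4;11 cells were seeded at 10000 per well and rested 4 h before dosing.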

RS4; 11Bcl-2-V156D cells = test: CellTiter-Glo (CTG) cell viability assay in RS4;11-BCL2-V156D cells; assay type: cell-based; conditions: 10% FBS, 3 days
Protocol: as §1, §2

MV-4-11 cells = test: CCK-8 cell viability assay in MV-4-11 cells; assay type: cell-based; conditions: 10% FBS, 3 days
How it was run: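 IC50 values come from vehicle-normalized CCK-8 absorbance at 450 nm, read 1–4 h after reagent addition. Before that, MV-4-11 cells seeded at 20000 per well were cultured 3 days at 37 °C with a compound dilution series.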

Bcl-2 WT = Bcl-2 WT (Homo sapiens, UniProt P10415); test: Bcl-2 WT inhibition, fluorescence polarization (Flu-BIM tracer) binding assay; conditions: FP; 20 nM Bcl2, 5 nM Flu-BIM, 1 h incubation; read-out: Bcl-2 w.t. (FP)
Chain of Bcl-2 WT (P10415 whole entry): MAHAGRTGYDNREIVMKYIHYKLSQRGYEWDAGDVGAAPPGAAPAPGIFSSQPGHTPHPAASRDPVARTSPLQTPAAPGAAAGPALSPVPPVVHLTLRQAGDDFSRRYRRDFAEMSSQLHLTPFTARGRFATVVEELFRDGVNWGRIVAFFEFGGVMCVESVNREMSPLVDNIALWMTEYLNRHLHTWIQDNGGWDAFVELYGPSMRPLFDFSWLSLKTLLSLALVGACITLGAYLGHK

Row | Structure (SMILES) | IC50 (RS4; 11Bcl-2-D103E cells; 72 h) [µM] | IC50 (RS4; 11Bcl-2-G101V cells; 72 h) [µM] | IC50 (RS4; 11Bcl-2-V156D cells; 72 h) [µM] | IC50 (MV-4-11 cells; Homo sapiens, MV4-11, 72 h) [µM] | IC50 (RS4; 11Bcl-2-D103E cells) [µM] | IC50 (RS4; 11Bcl-2-G101V cells) [µM] | IC50 (RS4; 11Bcl-2-V156D cells) [µM] | IC50 (MV-4-11 cells) [µM] | IC50 (Bcl-2 WT) [µM]
1 | CC1(C)CCC(CN2CCN(c3ccc(C(=O)NS(=O)(=O)c4ccc(NCC5CCOCC5)c([N+](=O)[O-])c4)c(Oc4cnc5[nH]ccc5c4)c3)CC2)=C(c2ccc(Cl)cc2)C1 [ABT-199, Venetoclax, reference compound] | 1.51 | 2.69 | 0.671 | 0.038 | – | – | – | – | –
2 | O=C(NS(=O)(=O)c1ccc(NC[C@H]2COCCO2)c([N+](=O)[O-])c1)c1ccc(N2CCN(CC3=C(c4ccc(Cl)cc4)CC4(CCC4)CC3)CC2)cc1Oc1cnc2[nH]ccc2c1 [APG-2575] | – | – | – | – | 0.516 | 2.43 | 0.324 | 0.034 | –
3 | CC1(C)CCC(CN2CCN(c3ccc(C(=O)NS(=O)(=O)c4ccc(NC[C@H]5CC[C@](C)(O)CC5)c([N+](=O)[O-])c4)c(Oc4cnc5[nH]ccc5c4)c3)CC2)=C(c2cc(-c3c(F)cc(C(C)(C)O)cc3F)cs2)C1 [Example 63, 2-((1H-pyrrolo[2,3-b]pyridin-5-yl)oxy)-4-(4-((2-(4-(2,6-difluoro-4-(2-hydroxypropan-2-yl)phenyl)thiophen-2-yl)-4,4-dimethylcyclohex-1-en-1-yl)methyl)piperazin-1-yl)-N-((4-((((1r,4r)-4-hydroxy-4-methylcyclohexyl)methyl)amino)-3-nitrophenyl)sulfonyl)benzamide] | 0.183 | 0.014 | 0.019 | 0.009 | – | – | – | – | 0.0163
4 | CC1(C)CCC(CN2CCN(c3ccc(C(=O)NS(=O)(=O)c4ccc(NC[C@H]5CC[C@](C)(O)CC5)c([N+](=O)[O-])c4)c(Oc4cnc5[nH]ccc5c4)c3)CC2)=C(c2cc(-c3c(F)cc(C(C)(C)CO)cc3F)cs2)C1 [Example 74, 2-((1H-pyrrolo[2,3-b]pyridin-5-yl)oxy)-4-(4-((2-(4-(2,6-difluoro-4-(1-hydroxy-2-methylpropan-2-yl)phenyl)thiophen-2-yl)-4,4-dimethylcyclohex-1-en-1-yl)methyl)piperazin-1-yl)-N-((4-((((1r,4r)-4-hydroxy-4-methylcyclohexyl)methyl)amino)-3-nitrophenyl)sulfonyl)benzamide] | – | 0.23 | – | 0.052 | – | – | – | – | 0.0385
5 | CC1(C)CCC(CN2CCN(c3ccc(C(=O)NS(=O)(=O)c4ccc(NC[C@H]5CC[C@](C)(O)CC5)c([N+](=O)[O-])c4)c(Oc4cnc5[nH]ccc5c4)c3)CC2)=C(c2cc(-c3cc(C(C)(C)O)ccc3F)cs2)C1 [Example 75, 2-((1H-pyrrolo[2,3-b]pyridin-5-yl)oxy)-4-(4-((2-(4-(2-fluoro-5-(2-hydroxypropan-2-yl)phenyl)thiophen-2-yl)-4,4-dimethylcyclohex-1-en-1-yl)methyl)piperazin-1-yl)-N-((4-((((1r,4r)-4-hydroxy-4-methylcyclohexyl)methyl)amino)-3-nitrophenyl)sulfonyl)benzamide] | – | 1.58 | – | 0.118 | – | – | – | – | 0.0192
6 | CC1(C)CCC(CN2CCN(c3ccc(C(=O)NS(=O)(=O)c4ccc(NC[C@H]5CC[C@](C)(O)CC5)c([N+](=O)[O-])c4)c(Oc4cnc5[nH]ccc5c4)c3)CC2)=C(c2cc(-c3ccc(C(C)(O)C(F)(F)F)cc3F)cs2)C1 (stereo partly drawn) [Example 78, 2-((1H-pyrrolo[2,3-b]pyridin-5-yl)oxy)-4-(4-((2-(4-(2-fluoro-4-(1,1,1-trifluoro-2-hydroxypropan-2-yl)phenyl)thiophen-2-yl)-4,4-dimethylcyclohex-1-en-1-yl)methyl)piperazin-1-yl)-N-((4-((((1r,4r)-4-hydroxy-4-methylcyclohexyl)methyl)amino)-3-nitrophenyl)sulfonyl)benzamide] | – | 0.58 | – | 0.059 | – | – | – | – | 0.0168
7 | CC1(C)CCC(CN2CCN(c3ccc(C(=O)NS(=O)(=O)c4ccc(NC[C@H]5CC[C@](C)(O)CC5)c([N+](=O)[O-])c4)c(Oc4cnc5[nH]ccc5c4)c3)CC2)=C(c2cc(-c3ccc4c(c3)CCC4(C)O)cs2)C1 (stereo partly drawn) [Example 79, 2-((1H-pyrrolo[2,3-b]pyridin-5-yl)oxy)-4-(4-((2-(4-(1-hydroxy-1-methyl-2,3-dihydro-1H-inden-5-yl)thiophen-2-yl)-4,4-dimethylcyclohex-1-en-1-yl)methyl)piperazin-1-yl)-N-((4-((((1r,4r)-4-hydroxy-4-methylcyclohexyl)methyl)amino)-3-nitrophenyl)sulfonyl)benzamide] | – | 0.17 | – | 0.011 | – | – | – | – | 0.0158
8 | CC(=O)NC(C)(C)c1cc(F)c(-c2csc(C3=C(CN4CCN(c5ccc(C(=O)NS(=O)(=O)c6ccc(NC[C@H]7CC[C@](C)(O)CC7)c([N+](=O)[O-])c6)c(Oc6cnc7[nH]ccc7c6)c5)CC4)CCC(C)(C)C3)c2)c(F)c1 [Example 80, 2-((1H-pyrrolo[2,3-b]pyridin-5-yl)oxy)-4-(4-((2-(4-(4-(2-acetamidopropan-2-yl)-2,6-difluorophenyl)thiophen-2-yl)-4,4-dimethylcyclohex-1-en-1-yl)methyl)piperazin-1-yl)-N-((4-((((1r,4r)-4-hydroxy-4-methylcyclohexyl)methyl)amino)-3-nitrophenyl)sulfonyl)benzamide] | – | 0.42 | – | 0.111 | – | – | – | – | 0.0156
9 | Cc1sc(C2=C(CN3CCN(c4ccc(C(=O)NS(=O)(=O)c5ccc(NC[C@H]6CC[C@](C)(O)CC6)c([N+](=O)[O-])c5)c(Oc5cnc6[nH]ccc6c5)c4)CC3)CCC(C)(C)C2)cc1-c1c(F)cc(C(C)(C)O)cc1F [Example 81, 2-((1H-pyrrolo[2,3-b]pyridin-5-yl)oxy)-4-(4-((2-(4-(2,6-difluoro-4-(2-hydroxypropan-2-yl)phenyl)-5-methylthiophen-2-yl)-4,4-dimethylcyclohex-1-en-1-yl)methyl)piperazin-1-yl)-N-((4-((((1r,4r)-4-hydroxy-4-methylcyclohexyl)methyl)amino)-3-nitrophenyl)sulfonyl)benzamide] | – | 1.71 | – | 0.27 | – | – | – | – | 0.0346
10 | CC1(C)CCC(CN2CCN(c3ccc(C(=O)NS(=O)(=O)c4ccc(NC[C@H]5CC[C@](C)(O)CC5)c([N+](=O)[O-])c4)c(Oc4cnc5[nH]ccc5c4)c3)CC2)=C(c2cc(-c3c(F)cc(C(C)(C)C(=O)O)cc3F)cs2)C1 [Example 82, 2-(4-(5-(2-((4-(3-((1H-pyrrolo[2,3-b]pyridin-5-yl)oxy)-4-(((4-((((1r,4r)-4-hydroxy-4-methylcyclohexyl)methyl)amino)-3-nitrophenyl)sulfonyl)carbamoyl)phenyl)piperazin-1-yl)methyl)-5,5-dimethylcyclohex-1-en-1-yl)thiophen-3-yl)-3,5-difluorophenyl)-2-methylpropanoic acid] | – | 1.27 | – | 0.114 | – | – | – | – | 0.0181
11 | C[C@@H](O)c1cc(F)c(-c2csc(C3=C(CN4CCN(c5ccc(C(=O)NS(=O)(=O)c6ccc(NC[C@H]7CC[C@](C)(O)CC7)c([N+](=O)[O-])c6)c(Oc6cnc7[nH]ccc7c6)c5)CC4)CCC(C)(C)C3)c2)c(F)c1 [Example 83, 2-((1H-pyrrolo[2,3-b]pyridin-5-yl)oxy)-4-(4-((2-(4-(2,6-difluoro-4-((R)-1-hydroxyethyl)phenyl)thiophen-2-yl)-4,4-dimethylcyclohex-1-en-1-yl)methyl)piperazin-1-yl)-N-((4-((((1r,4r)-4-hydroxy-4-methylcyclohexyl)methyl)amino)-3-nitrophenyl)sulfonyl)benzamide] | 0.048 | 0.02 | 0.008 | 0.002 | – | – | – | – | –
12 | C[C@H](O)c1cc(F)c(-c2csc(C3=C(CN4CCN(c5ccc(C(=O)NS(=O)(=O)c6ccc(NC[C@H]7CC[C@](C)(O)CC7)c([N+](=O)[O-])c6)c(Oc6cnc7[nH]ccc7c6)c5)CC4)CCC(C)(C)C3)c2)c(F)c1 [Example 84, 2-((1H-pyrrolo[2,3-b]pyridin-5-yl)oxy)-4-(4-((2-(4-(2,6-difluoro-4-((S)-1-hydroxyethyl)phenyl)thiophen-2-yl)-4,4-dimethylcyclohex-1-en-1-yl)methyl)piperazin-1-yl)-N-((4-((((1r,4r)-4-hydroxy-4-methylcyclohexyl)methyl)amino)-3-nitrophenyl)sulfonyl)benzamide] | 0.098 | 0.07 | 0.008 | 0.007 | – | – | – | – | –
